Laboratory results: patent publication US9328361B2, “Coryneform bacterium transformant and process for producing phenol using the same” (GREEN PHENOL DEVELOPMENT CO., LTD., priority 2010, dated 2016)
Where two headings read alike, the source gives them in different places.

Legend:
[1] = test system: Corynebacterium glutamicum R; details: aerobic culture, A liquid medium, 33° C.
Experimental: A growth inhibition test in aerobic culture was performed to examine the influence of phenol on Corynebacterium glutamicum, Escherichia coli, and Pseudomonas putida. Pseudomonas putida S12, which was used for the test, is reported to be a solvent-resistant strain. In the report, disclosed is an unparalleled technology using the strain as a host in phenol production. […]
The Corynebacterium glutamicum R grown in the above conditions was inoculated into 100 mL of A liquid media in such a way that the initial bacterial cell concentration would be OD610=0.05, phenol was added at the same time in such a way that the final concentration would be 0, 0.16, 0.2, 0.24, or […], and aerobic culture was performed with shaking at 33° C. The growth of bacterial cells was determined by absorbance measurement at OD610.
Pseudomonas putida F1 and S12 grown in the above conditions were each inoculated into 100 mL of LB (+glucose) liquid medium in such a way that the initial bacterial cell concentration would be OD610=0.05, phenol was added at the same time in such a way that the final concentration would be 0, 0.10, or […], and aerobic culture was performed with shaking at 30° C. The growth of bacterial cells was determined by absorbance measurement at OD610. […]

[2] = test system: Corynebacterium glutamicum R; details: reducing conditions (ORP −450 mV), 8% glucose, 33° C.
Experimental: Corynebacterium glutamicum R was applied to A agar medium and was left stand in the dark at 33° C. for 20 hours.
An inoculation loop of the Corynebacterium glutamicum R grown on a plate as above was inoculated into a test tube containing 10 mL of A liquid medium and was aerobically cultured with shaking at 33° C. for 15 hours.
The Corynebacterium glutamicum R grown in the above conditions was inoculated into a 2 L-conical flask containing 500 mL of A liquid medium and was aerobically cultured with shaking at 33° C. for 15 hours.
The bacterial cells cultured and proliferated as above were collected by centrifugation (5,000×g at 4° C. for 15 minutes). The obtained bacterial cells were suspended in BT (-urea) liquid medium (0.7% ammonium sulfate, 0.05% potassium dihydrogen phosphate, 0.05% dipotassium hydrogen phosphate, 0.05% magnesium sulfate heptahydrate, 0.0006% iron sulfate heptahydrate, 0.00042% manganese sulfate hydrate, 0.00002% biotin and 0.00002% thiamine hydrochloride) so that the concentration of the bacterial cell was 10% (w/v). […] During the reaction, 2.5 N aqueous ammonia was added with the use of a pH controller (Type: DT-1023 made by Able) to avoid the pH of the reaction mixture falling below 7.0.

[3] = test system: Escherichia coli JM109; details: aerobic culture, LB liquid medium, 37° C.
Experimental: (§1) A growth inhibition test in aerobic culture was performed to examine the influence of phenol on Corynebacterium glutamicum, Escherichia coli, and Pseudomonas putida. Pseudomonas putida S12, which was used for the test, is reported to be a solvent-resistant strain. In the report, disclosed is an unparalleled technology using the strain as a host in phenol production.
Escherichia coli JM109 was applied to LB agar medium (1% polypeptone, 0.5% yeast extract, 0.5% NaCl and 1.5% agar) and was left stand in the dark at 37° C. for 15 hours.
The growth of bacterial cells was determined by absorbance measurement at OD610.
(§2) Pseudomonas putida F1 and S12 grown in the above conditions were each inoculated into 100 mL of LB (+glucose) liquid medium in such a way that the initial bacterial cell concentration would be OD610=0.05, phenol was added at the same time in such a way that the final concentration would be 0, 0.10, or […], and aerobic culture was performed with shaking at 30° C. The growth of bacterial cells was determined by absorbance measurement at OD610. […] The vertical axis of FIG. 1 indicates OD610.

[4] = test system: Pseudomonas putida S12; details: aerobic culture, LB (+glucose) liquid medium, 30° C.
Experimental: as §1
(§3) Pseudomonas putida F1 and S12 were applied to LB agar medium (1% polypeptone, 0.5% yeast extract, 0.5% NaCl and 1.5% agar) and were left stand in the dark at 30° C. for 15 hours.
(§4) An inoculation loop of each of Pseudomonas putida F1 and S12 was inoculated into a test tube containing 10 mL of LB (+glucose) liquid medium (1% polypeptone, 0.5% yeast extract, 0.5% NaCl and 0.4% glucose), and aerobic culture was performed with shaking at 30° C. for 13 hours.
as §2

[5] = test system: Pseudomonas putida F1; details: aerobic culture, LB (+glucose) liquid medium, 30° C.
Experimental: as §1, §3, §4, §2

## Oc1ccccc1 [phenol]
[1]; 0.16% phenol
  proliferation of Corynebacterium glutamicum: hardly affected
[1]; 0.20% phenol
  proliferation of Corynebacterium glutamicum: favorable growth
[2]; 0.24% phenol
  influence on saccharide consumption: no influence of phenol was observed
[2]; 0.38% phenol
  saccharide consumption: saccharide consumption was observed
[2]; 0.46% phenol
  saccharide consumption: slightly observed
[3]; 0.16% phenol
  proliferation of Escherichia coli: significantly affected
[3]; 0.20% phenol
  proliferation of Escherichia coli: completely inhibited
[4]; 0.10% phenol
  proliferation of Pseudomonas putida S12: significantly affected
[4]; 0.20% phenol
  proliferation of Pseudomonas putida S12: completely inhibited
[5]; 0.10% phenol
  proliferation of Pseudomonas putida F1: significantly affected
[5]; 0.20% phenol
  proliferation of Pseudomonas putida F1: completely inhibited
